Source: patent US9827292B2, “Use of KGF in the treatment of menopausal disorders” (Università degli Studi di Roma “La Sapienza”, priority 2012, dated 2017)

Test: In vitro release test of Pluronic F127 hydrogel with model molecules
Format: physicochemical
Conditions: F127 20% w/v, 60 ml H2O, 37° C., FIG. 6D
Protocol: 2 mL of loaded hydrogel containing 4 mg of myoglobin or prednisolone in a solution of 20% Pluronic F127 w/v were introduced into a dialysis membrane bag (MWCO 3500 Da), and the dialysis bag sealed at the end was incubated in 60 mL of release medium (distilled water) at 37° C. and was stirred at a rate of 50 rpm. Saturation conditions were avoided by means of frequent substitution of fresh water. At predetermined intervals, aliquots of 0.5 mL of release medium were removed and substituted with an equal volume of fresh solution. The release behaviour in vitro of hydrogel loaded with myoglobin was compared with that of hydrogel loaded with prednisolone. All the assays were conducted in triplicate. Release profiles were expressed in cumulative release percentages over time.
The loaded hydrogels were prepared by solubilising at low temperature, in a 5 ml vial, an exact quantity of model molecule (approximately 4-5 mg) in 2 ml of solution of F127 20% w/v; the solution was then brought to the hydrogel state by placing the hermetically sealed vial at 37° C. The vial, closed at the head with a perforated mesh, was then introduced into the release medium (60 ml bidistilled H2O, T=37° C.) and held under constant and gentle stirring. The release therefore occurred by means of diffusion from the upper surface of the gel to the dissolution medium. […]

Row | Compound | release profile from Pluronic F127 hydrogel, comparison of the two model molecules
1 | C[C@]12C=CC(=O)C=C1CC[C@@H]1[C@@H]2[C@@H](O)C[C@@]2(C)[C@H]1CC[C@]2(O)C(=O)CO [prednisolone] | almost identical for the two different molecules
2 | myoglobin | almost identical for the two different molecules
